Assays:
HeLa cells = experiment: Cytotoxicity to mammalian cells, XTT assay; assay type: cell-based, human; conditions: 24 h; for cytotoxicity to HeLa (in words): at MIC against Tet^R E. coli (2: 48, 7: 128, 10: 10 μM); for survival of HeLa (in words): two-fold increase over MIC concentration
Method: (§1) It was initially hypothesized that antimicrobial activity resulted from membrane disruption. Membrane active compounds are often cytotoxic to mammalian cells (Shai, Biopolymers 2002, 66, 236-48; Shai, et al., Curr. Protein Pept. Sci. 2006, 7, 479-86). The survival of three mammalian epithelial cell lines was assayed for 2, 3, 5, and 10. […] The cell lines studied were human embryonic kidney (HEK-293), human cervix epithelial (HeLa, ATCC Accession No. CCL-2), and Cercopithecus aethiops kidney (Cos-7, ATCC Accession No. CRL 1651). HeLa cells were acquired from ATCC. Cos-7 and HEK-293 cells were donated by colleagues. Cell lines were regularly maintained in growth media containing DMEM (ATCC), 10% fetal bovine serum (FBS, ATCC) and 1% penicillin-streptomycin solution (ATCC). Adherent HEK-293, HeLa and Cos-7 cells were trypsinized using 0.25% (w/v) trypsin-EDTA (Sigma-Aldrich), suspended in a fresh media and diluted to get a concentration of 3×10^5 cells/ml. Cells were seeded in a 96-well plate (100 μL/well) to get 3×10^4 cells/well. The plates were incubated for 24 hours at 5% CO2 and 37° C. to reach a confluency of 80-90%.
(§2) In a sterile 1.5 mL micro-centrifuge tube, compounds 2, 3, 5, 6, 7 and 10 (0.5% DMSO) were mixed with assay media (DMEM+10% FBS) and serially diluted by 2-fold each to get 2[MIC], [MIC], ½[MIC] and ¼ [MIC] concentrations. A control containing 0.5% DMSO was also prepared. After 24 hours, the spent media in the 96-well plate containing HEK-293, HeLa and Cos-7 cells (90% confluency) was replaced with 100 μL media containing the compounds 2, 3, 5, 6, 7 and 10 at various concentrations. The cells were incubated at 37° C. and 5% CO2 for 24 hours before performing XTT assay (Sigma-Aldrich). The XTT assay was performed according to the manufacturer's protocol. After 24 hours of treatment with compounds, the media was replaced with PBS and 25 μL XTT was added to each well. The XTT assay works by the reduction of tetrazolium compound by alive cells to the colored soluble formazan product. The absorbance of the product was measured at 450 nm (XTT) and 690 nm (background). Percent survival was calculated by comparing the average absorbance of cells treated with compounds 2, 3, 5, 6, 7, and 10 to that of cells alone. Two replicates for each treatment were determined. Average percent survival and standard deviation were calculated.
(§3) Cells were cultured for 24 h in 96-well plates and treated with media containing concentrations using [MIC] and [MIC]×2 determined previously for Tet^R E. coli. The number of surviving cells was determined using an XTT assay (Sigma-Aldrich); the results are represented as percent survival in FIG. 2. Cells alone were used as controls and established 100% survival. The data represent two replicates of three trials and the error bars represent the standard deviation.

HEK-293 cells = experiment: Cytotoxicity to mammalian cells, XTT assay; assay type: cell-based, human; conditions: 24 h; for cytotoxicity to HEK-293 (in words): at MIC against Tet^R E. coli (2: 48, 7: 128, 10: 10 μM); for survival of HEK-293 (in words): two-fold increase over MIC concentration
Method: as §1, §2, §3

Tet^R E. coli = experiment: Recovery of tetracycline activity (co-administration, MIC of tetracycline); assay type: cell-based, Escherichia coli
Method: MIC experiments were performed as described in the Clinical and Laboratory Standards Institute (CLSI) standard microdilution protocols. Bacteria was grown overnight from one CFU in media without antibiotics. Tet^R E. coli was grown in media containing 100 μg/mL Ampicillin. On the day of experiment, bacteria were knocked back to O.D. 600 nm=0.550 in the same media. These exponential phase bacteria were then diluted in antibiotics-free media to get […]. In a 96-well plate either L. B. Miller or MHII media was added followed by serially diluted compounds 1-11, tetracycline, or ampicillin. All the tryptophan based compounds were dissolved in DMSO and the final concentration of DMSO in each well was kept constant at 0.5% (v/v).
For the combination experiments, first, the BT or control was added to the media in the well followed by the antibiotics. The contents of the well were mixed before adding 20 μL of bacteria to get 4×10^5 CFU/mL per well. The plates were incubated at 37° C., 200 RPM for 24 hours before collecting results on the Biotek Cytation 3 plate reader. No more than three plates were stacked on top of each other at a time. Optical density of the wells was determined at λ=600 nm. Cells alone were considered as 0% inhibition and media alone was considered as 100% inhibition. Any inhibition greater than 80% was considered as the MIC. The results were reproduced three times before reporting.
First, MICs were determined for compounds 2, 3, 5, 6, 7, and 10 against Tet^R E. coli. Compounds 6 (para-Ph) and 7 (n-C3) were also included as controls. The MICs against Tet^R E. coli were refined compared to the power series and are reported as a range in Table 1 above. The MICs of tetracycline and ampicillin against Tet^R E. coli were 900±100 μM and >1000 μM, respectively. For comparison, the MIC for tetracycline against non-resistant E. coli K-12 is ˜3 μM. Ampicillin was used to maintain selective pressure for the expression of pBR322 plasmid. Ampicillin was omitted from experiments that contained tetracycline. Next, the MIC of tetracycline was determined when co-administered with 2, 3, 5, 6, 7, or 10. The results are represented as the MIC of tetracycline in the presence of the indicated BTs. The fold-recovery was determined by dividing the MIC of tetracycline when used alone by the MIC of tetracycline determined in the presence of the compounds.
The fractional inhibitory concentration (FIC) is often used as a measure of synergism or antagonism in comparing two or more compounds (Berenbaum, Pharmacol. Rev. 1989, 41, 93-141). The FIC is the sum of the fraction of the MIC for each compound used. Synergy is defined broadly as FIC<1, or more conservatively as FIC≤0.5. Under the broad definition, all compounds tested can be said to have at least moderate synergy with tetracycline. All arene-based compounds fit the more conservative definition of synergy with FIC values of 0.5 or less at the tested concentrations.

Cos-7 cells = experiment: Cytotoxicity to mammalian cells, XTT assay; assay type: cell-based, Cercopithecus aethiops; conditions: 24 h; for percent survival Cos-7: at MIC against Tet^R E. coli (2: 48, 3: 28, 5: 56, 6: 120, 7: 128, 10: 10 μM); for cytotoxicity to Cos-7 (in words): at MIC against Tet^R E. coli (2: 48, 7: 128, 10: 10 μM); for survival of Cos-7 (in words): two-fold increase over MIC / highest concentrations tested
Method: as §1, §2, §3

[1] = at MIC against Tet^R E. coli (2: 48, 3: 28, 5: 56, 6: 120, 7: 128, 10: 10 μM)
[2] = compound at 14 μM (single comparison concentration)
[3] = compound at ¼ MIC (2: 12, 3: 7, 5: 14, 6: 30, 7: 30, 10: 2.5 μM)
[4] = compound at ¼ MIC (2: 12, 3: 7, 5: 14, 6: 30, 7: 30, 10: 2.5 μM), tetracycline alone 900 μM
[5] = compound at ½ MIC (2: 24, 3: 14, 5: 28, 6: 60, 7: 60, 10: 5 μM)
[6] = compound at ½ MIC (2: 24, 3: 14, 5: 28, 6: 60, 7: 60, 10: 5 μM), tetracycline alone 900 μM
[7] = at twice the MIC (FIG. 3 legend: 2: 96, 3: 56, 5: 112, 6: 240, 7: 256, 10: 20 μM)
[8] = compound at 5 μM (single comparison concentration)

| Compound | percent survival HeLa (HeLa cells; [1]) [%] | cytotoxicity to HeLa (in words) (HeLa cells) | survival of HeLa (in words) (HeLa cells) | percent survival HEK-293 (HEK-293 cells; [1]) [%] | cytotoxicity to HEK-293 (in words) (HEK-293 cells) | survival of HEK-293 (in words) (HEK-293 cells) | FIC (fractional inhibitory concentration) with tetracycline (Tet^R E. coli; [2]) | Fold Recovery of tetracycline activity (Tet^R E. coli; [2]) | MIC [Tet] (tetracycline in the presence of the compound) (Tet^R E. coli; [2]) [µM] | FIC (fractional inhibitory concentration) with tetracycline (Tet^R E. coli; [3]) | MIC [Tet] (tetracycline in the presence of the compound) (Tet^R E. coli; [3]) [µM] | Fold Recovery of tetracycline activity (Tet^R E. coli; [4]) | FIC (fractional inhibitory concentration) with tetracycline (Tet^R E. coli; [5]) | MIC [Tet] (tetracycline in the presence of the compound) (Tet^R E. coli; [5]) [µM] | Fold Recovery of tetracycline activity (Tet^R E. coli; [6]) | percent survival Cos-7 (Cos-7 cells) [%] | cytotoxicity to Cos-7 (in words) (Cos-7 cells) | survival of Cos-7 (in words) (Cos-7 cells) | percent survival HeLa (HeLa cells; [7]) [%] | percent survival HEK-293 (HEK-293 cells; [7]) [%] | further results |
| --- | --- | --- | --- | --- | --- | --- | --- | --- | --- | --- | --- | --- | --- | --- | --- | --- | --- | --- | --- | --- | --- |
| Cl.Cl.N[C@@H](Cc1c[nH]c2ccccc12)C(=O)Nc1cccc(NC(=O)[C@@H](N)Cc2c[nH]c3ccccc23)c1 [Compound 2, (2S,2′S)-1,1′-(1,3-Phenylenebis(azanediyl))bis(3-(1H-indol-3-yl)-1-oxopropan-2-aminium) chloride] | 100 | no cytotoxicity | unaffected | 100 | no cytotoxicity | unaffected | 0.42 | 8-fold | 112.5 | 0.38 | 112.5 | 8-fold | 0.56 | 56.25 | 16-fold | 100 | no cytotoxicity | unaffected | – | – | – |
| Cl.Cl.N[C@H](Cc1c[nH]c2ccccc12)C(=O)Nc1cccc(NC(=O)[C@H](N)Cc2c[nH]c3ccccc23)c1 [Compound 3, (2R,2′R)-1,1′-(1,3-Phenylenebis(azanediyl))bis(3-(1H-indol-3-yl)-1-oxopropan-2-aminium) chloride] | 100 | – | – | 100 | – | – | – | – | – | 0.50 | 225 | 4-fold | 0.63 | 112.5 | 8-fold | 100 | – | – | 29 | 62 | – |
| Cl.Cl.N[C@@H](Cc1c[nH]c2ccccc12)C(=O)Nc1ccccc1NC(=O)[C@@H](N)Cc1c[nH]c2ccccc12 [Compound 5, (2S,2′S)-1,1′-(1,2-Phenylenebis(azanediyl))bis(3-(1H-indol-3-yl)-1-oxopropan-2-aminium) chloride] | 100 | – | unaffected | 100 | – | unaffected | – | – | – | 0.50 | 225 | 4-fold | 0.63 | 112.5 | 8-fold | 100 | – | unaffected | – | – | – |
| Cl.Cl.N[C@@H](Cc1c[nH]c2ccccc12)C(=O)Nc1ccc(NC(=O)[C@@H](N)Cc2c[nH]c3ccccc23)cc1 [Compound 6, (2S,2′S)-1,1′-(1,4-Phenylenebis(azanediyl))bis(3-(1H-indol-3-yl)-1-oxopropan-2-aminium) chloride] | 100 | – | – | 100 | – | – | 0.62 | 2-fold | 450 | 0.50 | 225 | 4-fold | 0.63 | 112.5 | 8-fold | 100 | – | – | 29 | 61 | – |
| Cl.Cl.N[C@@H](Cc1c[nH]c2ccccc12)C(=O)NCCCNC(=O)[C@@H](N)Cc1c[nH]c2ccccc12 [Compound 7, (2S,2′S)-1,1′-(Propane-1,3-diylbis(azanediyl))bis(3-(1H-indol-3-yl)-1-oxopropan-2-aminium) chloride] | – | moderately toxic | – | – | minimally toxic | – | – | – | – | 0.38 | 112.5 | 8-fold | 0.63 | 112.5 | 8-fold | – | minimally toxic | – | – | – | FIC (fractional inhibitory concentration) with tetracycline (Tet^R E. coli; [8]): 0.54; Fold Recovery of tetracycline activity (Tet^R E. coli; [8]): 2-fold; MIC [Tet] (tetracycline in the presence of the compound) (Tet^R E. coli; [8]): 450 µM |

— patent US11213512B2, “Bis-amino acid based compound and use thereof” (THE CURATORS OF THE UNIVERSITY OF MISSOURI, priority 2016, dated 2022)
